Values of other authors as cited in US20160076057A1, “INHIBITION OF METHANE AND HYDROGEN SULFIDE PRODUCTION IN ANAEROBIC DIGESTER ANIMAL FARMS, LANDFILLS, SEDIMENTS AND SEWER SYSTEMS” (Innovative Environmental Technologies, Inc., priority 2014, published 2016).

Assays:
[1] = system: F420-dependent NADP oxidoreductase enzyme; settings: Sharma et al. (2011); for affinity for the model protein compared to natural ligand F420: 3D model structure, F420 binding cavity
Methanobrevibacter = settings: Miller and Wolin (2001)
cellulolytic bacteria = settings: Wolin and Miller (2005)
non-methanogens = settings: Miller and Wolin (2001)
[2] = system: pure methanogenic bacteria; settings: Wolin and Miller (2005)

Row | Compound | affinity for the model protein compared to natural ligand F420 [1] | blocking the activity site for methane production [1] | methane formation (Methanobrevibacter) | concentration that completely inhibited growth (Methanobrevibacter; per ml of culture medium) [nmol/mL] | IC50 (Methanobrevibacter; per ml of culture medium, read-out: concentration giving 50% inhibition of growth) [µM] | effect on cellulolytic bacteria (cellulolytic bacteria) | populations of the non-methanogens (non-methanogens) | growth and activity of pure methanogenic bacteria [2]
1 | CC[C@H](C)C(=O)O[C@H]1CCC=C2C=C[C@H](C)[C@H](CC[C@@H]3C[C@@H](O)CC(=O)O3)[C@H]21 [compactin, compactin (mevastatin)] | more affinity | very effective |  |  |  |  |  | 
2 | CC[C@H](C)C(=O)O[C@H]1C[C@@H](C)C=C2C=C[C@H](C)[C@H](CC[C@@H]3C[C@@H](O)CC(=O)O3)[C@H]21 [lovastatin, Lovastatin] | more affinity | very effective | significantly inhibited | 10 | 4 | without any negative effect | not affected | significantly reduced
